{"source": "patent US7939712B2", "about": "“Method to alleviate abiotic stress in plants by expression of mitochondrial-targeted purple acid phosphatase” (The Chinese University of Hong Kong, priority 2006, dated 2011)", "tested_on": "BY-2 cells", "assay": "Analysis of mitochondria integrity (Rh123 staining) under NaCl or PEG stress", "type": "cell-based, tobacco", "conditions": "wild type BY-2 + 10 mM ascorbic acid", "method": "Cells were treated with 200 mM NaCl for 1 h or 2% PEG for 1 h before staining with 10 μg/ml rhodamine-123 (Rh123) (R302, Molecular Probes) for 1 h. The signal of Rh123 was excited by green HeNe laser at 543 nm. The filter set HQ590/70 was used and confocal images were collected by the Bio-Rad Radiance 2100 system. 10-25 cells were counted for each sample for statistical analysis.\nTransgenic BY-2 cell lines prepared as in Example 1 were cultured to express the GmPAP3 protein and subjected to treatment with sodium chloride or polyethylene glycol (PEG, osmotic stress) as explained above and in the description of the results as shown in FIGS. 3A-3L. The results on mitochondrial integrity were compared with the effect of the presence of ascorbic acid. The results are shown in the table below which summarizes the data in FIGS. 3A-3L. The data are the results of counting 10-25 cells and the experiment repeated 3 times. The percentage was presented as the mean value of 3 experiments±SD, where ** denotes statistical difference (p<0.01) from the wild type BY-2 cells under the same treatment, based on one-way ANOVA followed by the Turkey test.\nWild type (WT) BY-2 cells (FIGS. 3A-3C) and GmPAP3 transgenic BY-2 cell lines #20 and #29 (FIGS. 3G-3I and FIGS. 3J-3L, respectively) without ascorbic acid supplements and wild type BY-2 cells with 10 mM ascorbic acid supplements (+Asc) (FIGS. 3D-3F) were pre-treated in a cell culture medium without stress (FIGS. 3A, 3D, 3G and 3J), with 200 mM NaCl for 1 hr (FIGS. 3B, 3E, 3H and 3K), or with 2% PEG for 1 h (FIGS. 3C, 3F, 3I, 3L) before staining with 10 μg/mL Rh123 for another hour. The signal of Rh123 was observed using a confocal laser scanning microscope (see materials and methods). 10-25 cells were counted for each line. Scale bar=50 μm.", "note": "Marks after values point to notes of the source that are not given here."}
{"smiles": "O=C1O[C@H]([C@@H](O)CO)C(O)=C1O", "note": "[ascorbic acid]", "values": [{"measurement": "% cells with intact mitochondria, NaCl", "setting": "200 mM NaCl 1 h, mean of 3 experiments ± SD", "value": "86.20 ± 3.3** %"}, {"measurement": "% cells with intact mitochondria, PEG", "setting": "2% PEG 1 h, mean of 3 experiments ± SD", "value": "82.16 ± 3.7** %"}, {"measurement": "% cells with intact mitochondria, Control", "setting": "medium without stress", "value": 100, "unit": "%"}]}
